The text below walks through data of ChEMBL document CHEMBL3272080, “Analogues of luteinizing hormone releasing factor modified at positions 2, 6, and 10” (J Med Chem, 1976).

Series [1] is described as follows: Retardation factor in 1-butanol-pyridine-0.1% acetic acid at 5:3:11 ratio by TLC. The class given is physicochemical.
Series [2] is described as follows: Retardation factor in 2-butanol-0.1 N acetic acid at 1:1 ratio by TLC. In kind it is physicochemical.
Series [3] in a line: Retardation factor in 2-butanol-water at 1:1 ratio by TLC. The settings on record: buffer. In kind it is physicochemical.
A short description of series [4]: Retardation factor in 1-butanol-2-propanol-1 N ammonium hydroxide-ethyl acetate at 1:1:2.5:1 ratio by TLC. The class given is physicochemical.
Series [5] is described as follows: Retardation factor in 1-butanol-acetic acid-water at 4:1:5 ratio by TLC. In kind it is physicochemical. The conditions noted are these: buffer.
A short description of series [6]: Inhibition of LRF-induced luteinizing hormone secretion in rat anterior pituitary cells relative to [des-His2,D-Ala6]-LRF. In kind it is functional, Pituitary gland cell.
Series [7] can be described thus: Retardation factor in 1-butanol-ethyl acetate-acetic acid-water at 1:1:1:1 ratio by TLC. The class given is physicochemical. The conditions noted are these: buffer.
Series [8] can be described thus: Retardation factor in ethyl acetate-pyridine-acetic acid-water at 5:5:1:3 ratio by TLC. The conditions noted are these: buffer. The class given is physicochemical.
Series [9] can be described thus: Retardation factor in 2-butanol-0.1 N ammonium hydroxide at 1:1 ratio by TLC. In kind it is physicochemical.
Series [10] is described as follows: Increase in luteinizing hormone secretion in rat anterior pituitary cells relative to luteinizing hormone releasing factor. In kind it is functional, Pituitary gland cell.

*1 amine or outer side, *2 acyl side, *3 side chain or, on linkers, in order; H or OH if unused. Where a SMILES comes first, the peptide text is derived from it. [ ]: non-standard residue; d: D form. X1 = CCCCCCCCCCCCNCCC[C@@H](N[*:1])C(=O)[*:2]; pGlu = O=C1CC[C@@H](C(=O)O)N1

For `CCNC(=O)[C@@H]1CCCN1C(=O)[C@H](CCCNC(=N)N)NC(=O)[C@H](CC(C)C)NC(=O)[C@@H](CCCN)NC(=O)[C@H](Cc1ccc(O)cc1)NC(=O)[C@H](CO)NC(=O)[C@H](Cc1c[nH]c2ccccc12)NC(=O)[C@@H]1CCC(=O)N1`, the Rf was found to be 0.63 in series [1]; 0.36 in [2]; 0.28 in series [3]; 0.38 in series [4]; 0.54 in [5]; 0.78 in series [7]. The Rf in [8] is 0.71. Moreover, the “fold change (FC)” value in series [6] is recorded as 105.
With `CCCCCCCCCCCCNCCCC[C@@H](NC(=O)[C@H](Cc1ccc(O)cc1)NC(=O)[C@H](CO)NC(=O)[C@H](Cc1c[nH]c2ccccc12)NC(=O)[C@@H]1CCC(=O)N1)C(=O)N[C@@H](CC(C)C)C(=O)N[C@@H](CCCNC(=N)N)C(=O)N1CCC[C@H]1C(=O)NCC`, the Rf in [1] turned out to be 0.73; in [2], 0.52; in [3], 0.46; in series [4], 0.47; in series [5], 0.63; in [9], 0.45. Besides, the Rf in series [7] was 0.83; in series [8] it was 0.53. Moreover, the “fold change (FC)” value in series [6] is reported as 276.
As to `CCCCCCCCCCCCNCCC[C@@H](NC(=O)[C@H](Cc1ccc(O)cc1)NC(=O)[C@H](CO)NC(=O)[C@H](Cc1c[nH]c2ccccc12)NC(=O)[C@@H]1CCC(=O)N1)C(=O)N[C@@H](CC(C)C)C(=O)N[C@@H](CCCNC(=N)N)C(=O)N1CCC[C@H]1C(=O)NCC` ([pGlu]WSY[X1]LRP-NHEt), the Rf in series [1] was 0.71; in series [2], 0.51; in [3], 0.47; in [4], 0.49; in [5], 0.64; in [9], 0.46. Further, the Rf in series [7] came to 0.84; in series [8], 0.55. Also, the “fold change (FC)” value in [6] was found to be 153.
As for `CCCCCCCCCCCCNCCC[C@@H](NC(=O)[C@H](Cc1ccc(O)cc1)NC(=O)[C@H](CO)NC(=O)[C@H](Cc1c[nH]c2ccccc12)NC(=O)[C@@H]1CCC(=O)N1)C(=O)N[C@@H](CC(C)C)C(=O)N[C@@H](CCCNC(=N)N)C(=O)N1CCC[C@H]1C(=O)NCC(N)=O` ([pGlu]WSY[X1]LRPG-NH2), the Rf turned out to be 0.67 in [1]; 0.47 in series [2]; 0.45 in series [3]; 0.44 in series [4]; 0.53 in series [5]; 0.43 in series [9]. Also, the Rf is on record as 0.78 in [7] and 0.48 in [8]. In addition, the “fold change (FC)” value in series [6] was found to be 278.
As for `CC(C)C[C@H](NC(=O)[C@@H](CCCCN)NC(=O)[C@H](Cc1ccc(O)cc1)NC(=O)[C@H](CO)NC(=O)[C@H](Cc1c[nH]c2ccccc12)NC(=O)[C@@H]1CCC(=O)N1)C(=O)N[C@@H](CCCNC(=N)N)C(=O)N1CCC[C@H]1C(=O)NCC(N)=O` ([pGlu]WSY[dK]LRPG-NH2), the Rf in series [1] is 0.47; in series [2], 0.33; in series [3], 0.25; in series [4] it was 0.26; in series [5] it was 0.35; in series [7], 0.73. Also, in [8], the Rf worked out at 0.71. Also, the “fold change (FC)” value in [6] is listed as 123.
Turning to `CC(C)C[C@H](NC(=O)[C@@H](CCCN)NC(=O)[C@H](Cc1ccc(O)cc1)NC(=O)[C@H](CO)NC(=O)[C@H](Cc1c[nH]c2ccccc12)NC(=O)[C@@H]1CCC(=O)N1)C(=O)N[C@@H](CCCNC(=N)N)C(=O)N1CCC[C@H]1C(=O)NCC(N)=O`, the Rf came out at 0.54 in series [1]; 0.31 in series [2]; 0.24 in [3]; 0.28 in [4]; 0.46 in series [5]; 0.74 in series [7]. Also, the Rf in series [8] came out at 0.67. The “fold change (FC)” value in [6] worked out at 134.
In the case of `CCCCCCCCCCCCNCCCC[C@@H](NC(=O)[C@H](Cc1ccc(O)cc1)NC(=O)[C@H](CO)NC(=O)[C@H](Cc1c[nH]c2ccccc12)NC(=O)[C@H](Cc1cnc[nH]1)NC(=O)[C@@H]1CCC(=O)N1)C(=O)N[C@@H](CC(C)C)C(=O)N[C@@H](CCCNC(=N)N)C(=O)N1CCC[C@H]1C(=O)NCC`, the Rf in [1] is given as 0.61; in [2] it was 0.43; in series [3] it was 0.39; in series [4] it was 0.47; in series [5], 0.42; in series [9] it was 0.38. Further, the Rf in series [7] stood at 0.72; in series [8], 0.4. Further, the “fold change (FC)” value in series [10] is given as 1038.
`CC(=O)NCCC[C@@H](NC(=O)[C@H](Cc1ccc(O)cc1)NC(=O)[C@H](CO)NC(=O)[C@H](Cc1c[nH]c2ccccc12)NC(=O)[C@H](Cc1cnc[nH]1)NC(=O)[C@@H]1CCC(=O)N1)C(=O)N[C@@H](CC(C)C)C(=O)N[C@@H](CCCNC(=N)N)C(=O)N1CCC[C@H]1C(=O)NCC(N)=O`: the Rf was determined as 0.57 in series [1]; 0.34 in [2]; 0.33 in series [3]; 0.43 in series [4]; 0.38 in series [5]; 0.34 in [9]. In addition, the Rf is on record as 0.7 in series [7] and 0.66 in series [8]. For the same compound, in series [10], the “fold change (FC)” value came to 101.
For the compound `CCNC(=O)[C@@H]1CCCN1C(=O)[C@H](CCCNC(=N)N)NC(=O)[C@H](CC(C)C)NC(=O)[C@@H](CCCCN)NC(=O)[C@H](Cc1ccc(O)cc1)NC(=O)[C@H](CO)NC(=O)[C@H](Cc1c[nH]c2ccccc12)NC(=O)[C@@H]1CCC(=O)N1`, the Rf in series [1] was 0.59; in [2], 0.35; in series [3], 0.31; in [4], 0.37; in series [5] it was 0.49; in series [7] it was 0.76. In series [8], the Rf is given as 0.71. Further, in series [6], the “fold change (FC)” value was 97.
Turning to `CCCCCCCCCCCCNCCC[C@@H](NC(=O)[C@H](Cc1ccc(O)cc1)NC(=O)[C@H](CO)NC(=O)[C@H](Cc1c[nH]c2ccccc12)NC(=O)[C@H](Cc1cnc[nH]1)NC(=O)[C@@H]1CCC(=O)N1)C(=O)N[C@@H](CC(C)C)C(=O)N[C@@H](CCCNC(=N)N)C(=O)N1CCC[C@H]1C(=O)NCC(N)=O`, the Rf is listed as 0.59 in series [1]; 0.39 in series [2]; 0.38 in series [3]; 0.43 in [4]; 0.4 in series [5]; 0.36 in series [9]. Besides, the Rf in series [7] was determined as 0.72; in series [8] it was 0.34. In [10], the “fold change (FC)” value worked out at 290.
With `CC(=O)NCCCC[C@@H](NC(=O)[C@H](Cc1ccc(O)cc1)NC(=O)[C@H](CO)NC(=O)[C@H](Cc1c[nH]c2ccccc12)NC(=O)[C@H](Cc1cnc[nH]1)NC(=O)[C@@H]1CCC(=O)N1)C(=O)N[C@@H](CC(C)C)C(=O)N[C@@H](CCCNC(=N)N)C(=O)N1CCC[C@H]1C(=O)NCC(N)=O`, the Rf in [1] was 0.56; in series [2], 0.34; in series [3] it was 0.34; in [4] it was 0.43; in series [5], 0.39; in series [9] it was 0.33. Moreover, the Rf in series [7] is recorded as 0.73; in series [8], 0.69. Further, the “fold change (FC)” value in series [10] is 274.
Take `CCCCCCCCCCCCNCCCC[C@@H](NC(=O)[C@H](Cc1ccc(O)cc1)NC(=O)[C@H](CO)NC(=O)[C@H](Cc1c[nH]c2ccccc12)NC(=O)[C@@H]1CCC(=O)N1)C(=O)N[C@@H](CC(C)C)C(=O)N[C@@H](CCCNC(=N)N)C(=O)N1CCC[C@H]1C(=O)NCC(N)=O`: the Rf stood at 0.66 in [1]; 0.46 in [2]; 0.44 in [3]; 0.44 in series [4]; 0.52 in series [5]; 0.43 in series [9]. Moreover, the Rf in series [7] is 0.78; in series [8], 0.48. Also, the “fold change (FC)” value in series [6] was 284.
